Measured values taken from US20050180954A1, “Drug for treating bone disorders” (priority 1995, published 2005).

Legend:
[1] = system: ovariectomized mice of ddy strain; experiment: Osteoporosis model mice (ovariectomy): dry bone weight of femur; format: in vivo, mouse
Experimental: (§1) Female mice of ddy strain of 8 weeks old were divided into 5 groups and experiment was carried out. Bilateral ovariectomy was performed on the mice in 3 groups and sham operation alone was performed on the mice in 2 groups. Thereafter, the mice were raised with normal diet for 1 month, thereby making the state of osteoporosis in the ovariectomized groups. In this model, it is known that the mice become the state of osteoporosis 2 to 3 weeks after the ovariectomy (T. Hosaka et al., ANITEX, Vol. 5, 243, 1992; Miyaura, C. et al., J. Bone Mineral Res., 10, 1365, 1995). From the third weeks from the ovariectomy, murine IFN was subcutaneously administered (100 μl/head/time) once per day, totally 25 times. On Day 30 from the beginning of administration, under ether anesthesia, body weight was measured, blood was collected, and femur was collected and dry bone weight thereof was measured for each mouse.
(§2) Drying of femur was performed as follows. That is, femur was fixed with 2 ml of 70% ethanol per one taken out femur at room temperature for 24 hours and then the attached muscles and connective tissues were carefully removed with a forceps and surgical knife with replaceable blade. After immersing the femur in fresh 70% ethanol for 72 hours at room temperature, the femur was dried in a hot wind-generating incubator (Koukensha Engineering. Co., Tokyo) at 55° C. for 24 hours. The weight of the dried bone was measured with an electronic force balance (Mettler AE50, Metteler Instrumente AG, Switzerland). Murine IFN to be administered was diluted to the desired concentration with physiological saline. During the test, urine of mice was collected with metabolic cage (KN-645, Natsumeseisakusho, Tokyo) and frozen to store. To one group subjected to the sham operation, physiological saline (Otsuka Pharmaceutical Co.) was administered, and to another group subjected to the sham operation, murine IFNβ was administered at a dose of 10^5 units/head/time (diluted with physiological saline when use). […]

[2] = system: osteoclast like cells from bone marrow cells of mice of C 57 BL/6 strain; experiment: Formation of osteoclast like cells from bone marrow cells of mice of C 57 BL/6 strain; format: cell-based, mouse; conditions: Example 2, C 57 BL/6 strain bone marrow cells
Experimental: The number of viable bone marrow cells was counted using tripam blue dye exclusion test and the bone marrow cells were diluted with α-MEM containing 10% JCS, 10^−8M Vit D3, 10^−7 M dexamethasone to a population density of 1.5×10^6 cells/ml, followed by placing the resulting suspension in each well in 24-well plates in an amount of 0.45 ml/well. To each well, 50 μl of the medium containing varying concentration of IFN was added to make the volume to 0.5 ml/well and culturing was begun. At every three days, 0.4 ml of the culture medium was removed from each well and 0.4 ml of fresh medium (the above-mentioned medium containing the respective concentration of IFN) was added. On Day 8 from the beginning of the culturing, the medium was removed and the cells were fixed with mixed solution of ethyl alcohol and diethyl ether (1:1) and the cells were stained with tartrate resistant acid phosphatase (TRAP), followed by counting TRAP positive multinuclear cells with a phase contrast microscope. […] The inhibition effect of IFNγ was stronger than that of IFNβ. That is, the inhibition concentration IC50 of IFNγ was not more than 0.1 units/ml, and that of IFNβ was 0.2 units/ml.
In place of mice of ddy strain, male mice of C 57 BL/6 of 7 weeks old were used. The mice were exanguinated to death under ether anesthesia and the femur and the tibia of hind legs were collected from each mouse. The connective tissues on the surfaces of the bones were carefully removed, and both ends of each bone were cut off with scissors. The bone marrow cells were suspended in α-MEM containing 10% JCS and the suspension was flushed out through a 25 G needle attached to a syringe to collect the suspension in a centrifugal tube. The collected suspension was washed by centrifugation in the same medium at 2000 rpm at 4° C. for 5 minutes. The precipitated cells were dispersed in the above-mentioned medium and the washing by centrifugation was repeated twice. Formation of osteoclast like cells was measured by the same method as in Example 1.

[3] = system: ovariectomized mice of ddy strain; experiment: Osteoporosis model mice: urinary D-Pyr (bone resorption marker); format: in vivo, mouse; conditions: for amount of excreted urinary D-Pyr compensated with urinary creatinine: ovariectomized mice, Week 4
Experimental: as §1, §2

[4] = Osteoporosis model mice: change in body weight; format: in vivo, mouse; conditions: administration continuously for 4 weeks at a dose exhibiting the therapeutic effect
Experimental: as §1
It is well-known that the increase and decrease in the amount of urinary D-Pyr excreted in urine, which is a crosslinked substance of bone collagen, is an excellent marker reflecting the degree of degradation of bone collagen, that is, the degree of bone resorption (C. P. Jerome et al., Bone and Mineral, 19, 117-125, 1992). For measurement of urinary D-Pyr, a commercially available kit (PYRILINKS-D Assay, METRA BIOSYSTEMS) was used. […]

Substance: MuIFNβ: murine interferon β, Lot M-0034, prepared by Toray Industries, Inc. by genetic engineering technique
- bone volume (dry bone weight of femur) ([1]; ovariectomized mice, 10^3 units/head/time s.c.): exhibited prevention effect against further loss in the bone volume
- bone volume (dry bone weight of femur) ([1]; ovariectomized mice, 10^5 units/head/time s.c. once per day, 25 times, Day 30): recovered the normal level of bone volume
- bone volume (dry bone weight of femur) ([1]; sham operation mice, 10^5 units/head/time s.c.): significant increase in the bone volume was not observed
- inhibition of formation of osteoclast like cells [2]: strongly inhibited formation of osteoclast like cells
- IC50 of formation inhibition of osteoclast like cells ([2]; Day 8): 0.1 units/ml
- amount of excreted urinary D-Pyr compensated with urinary creatinine ([3]; 10^3 units/head/time): inhibition of bone resorption was observed
- amount of excreted urinary D-Pyr compensated with urinary creatinine ([3]; 10^5 units/head/time): inhibition of bone resorption was observed
- inhibition of excretion of urinary deoxypyridinoline ([3]; sham operation groups): is exhibited also in the sham operation groups
- change in body weight [4]: no problematic change in body weight was observed in any group
